The record followed here is patent US5449612A, “Process for identifying candida by means of chromogenic substances” (Serbio, priority 1990, dated 1995).

Non-standard residues stand in square brackets, D forms with d. Residues, ends and D or L forms follow the SMILES beside them. *: point of attachment. Hyp = O=C(O)[C@@H]1C[C@@H](O)CN1; pNA = O=[N+]([O-])c1ccc(N*)cc1; Phg = N[C@H](C(=O)O)c1ccccc1; Pip = O=C(O)[C@@H]1CCCCN1; Cbz = O=C(OCc1ccccc1)*; Boc = CC(C)(C)OC(=O)*

One assay concerns Candida albicans. The assay can be described thus: Tests on substrates against Candida albicans, colour reading on buffered gelose. In kind it is cell-based. The settings on record: Table I; for Reading at 24 h: medium pH 6.0, YNB, glucose, agar, gentamycin, coloration or fluorescence.
The subject of another assay is Candida tropicalis. In words: Tests on substrates against Candida tropicalis, colour reading on buffered gelose. In kind it is cell-based. Details: C. TROPICALIS reading at 48 h: key to the marks not given beside the values. The note with it: for Specificity: interference with C. tropicalis: Table I; for Reading at 24 h: Table II, medium pH 6.0, YNB, glucose, agar, gentamycin; for C. TROPICALIS reading at 24 h: Table III, medium pH 6.0.

The test system of the next assay is T. glabrata. In words: Tests on substrates against T. glabrata, colour reading on buffered gelose. On T. GLABRATA reading at 24 h: key: -: none; +: weak; ++: moderate; +++: intense; ++++: very intense. Details: T. GLABRATA reading at 48 h: key: -: none; +: weak; ++: moderate; +++: intense; ++++: very intense. The format is cell-based, Torulopsis glabrata.
In the next assay the test system is C. tropicalis. In words: Diagnosis from isolated colonies on gelose 2/5. The format is cell-based, Candida tropicalis.

For `CC(C)(C)OC(=O)N1C[C@H](O)C[C@H]1C(=O)N1CCC[C@H]1C(=O)N[C@@H](CCCNC(=N)N)C(=O)Nc1ccc([N+](=O)[O-])cc1` [Boc-L-4Hyp-L-Pro-L-Arg-pNA.AcOH] (Boc-[Hyp]-Pro-Arg-pNA), the “Reading at 24 h” value in the assay on Candida albicans is given as “++++”. In addition, the “Specificity: interference with C. tropicalis” value (“Specificity: interference” below) in the assay with Candida tropicalis was “(b)”.

`CC(=O)O.N=C(N)NCCC[C@H](NC(=O)OCc1ccccc1)C(=O)Nc1ccc([N+](=O)[O-])cc1` [Cbo-L-Arg-pNA.AcOH]: the “Reading at 24 h” value in the assay with Candida albicans is listed as “-”.

Regarding `O=C(Nc1ccc([N+](=O)[O-])cc1)[C@@H]1CCCN1C(=O)OCc1ccccc1` [Cbo-L-Pro-pNA], the “Reading at 24 h” value with Candida albicans is “-”.

As for `N=C(N)NCCC[C@H](NC(=O)[C@H]1CCCN1C(=O)[C@H]1CCCN1)C(=O)Nc1ccc([N+](=O)[O-])cc1` [H-D-Pro-D-Pro-L-Arg-pNA.2AcOH] (H-[dP]-[dP]-Arg-pNA), the “Reading at 24 h” value with Candida tropicalis is reported as “-”.

For the compound `N=C(N)NCCC[C@H](NC(=O)[C@@H]1CCCN1C(=O)CNC(=O)[C@H]1CCCN1)C(=O)Nc1ccc([N+](=O)[O-])cc1` [H-D-Pro-Gly-L-Pro-L-Arg-pNA.2AcOH] (H-[dP]GPR-pNA), the “T. GLABRATA reading at 24 h” value in the assay with T. glabrata (pH 6) is reported as “+”. Further, the “C. TROPICALIS reading at 24 h” value in the assay with Candida tropicalis is listed as “+”.

For the compound `N=C(N)NCCC[C@H](NC(=O)[C@@H](NC(=O)[C@H]1CCCN1)c1ccccc1)C(=O)Nc1ccc([N+](=O)[O-])cc1` [H-D-Pro-L-Phg-L-Arg-pNA.2AcOH] (H-[dP]-[Phg]-Arg-pNA), the “T. GLABRATA reading at 24 h” value in the assay on T. glabrata (pH 6) is reported as “-”. For the same compound, the “C. TROPICALIS reading at 24 h” value in the assay with Candida tropicalis is reported as “++”.

Take `N=C(N)NCCC[C@H](NC(=O)[C@@H]1CCCN1C(=O)[C@H]1CCCN1)C(=O)Nc1ccc([N+](=O)[O-])cc1` [H-D-Pro-L-Pro-L-Arg-pNA.2AcOH] (H-[dP]-Pro-Arg-pNA): the “Reading at 24 h” value in the assay with Candida tropicalis is reported as “++++”.

As to `N=C(N)NCCC[C@H](NC(=O)[C@@H]1CCCCN1C(=O)CN)C(=O)Nc1ccc([N+](=O)[O-])cc1` [H-Gly-L-Pip-L-Arg-pNA.2AcOH] (H-Gly-[Pip]-Arg-pNA), the “Reading at 24 h” value in the assay on Candida albicans was “++”. Also, the “Specificity: interference” value with Candida tropicalis is “(b)”.

For `NCC(=O)N1CCC[C@H]1C(=O)Nc1ccc([N+](=O)[O-])cc1` [H-Gly-L-Pro-pNA.AcOH] (H-Gly-Pro-pNA), the “hydrolysis by the strains of C. tropicalis” value in the assay with C. tropicalis is on record as “hydrolyzed”.

With `CC(=O)O.O=C(Nc1ccc([N+](=O)[O-])cc1)[C@H]1NCCC1O` (stereo partly drawn) [H-L-3Hyp-pNA.AcOH], in the assay on Candida albicans, the “Specificity: nonspecific for the strains of Candida albicans” value (shortened to “Specificity: nonspecific for the strains”) is reported as “(a)” and the “Reading at 24 h” value is on record as “+++”.

As for `N=C(N)NCCC[C@H](NC(=O)[C@@H]1CCCN1C(=O)[C@@H]1C[C@@H](O)CN1)C(=O)Nc1ccc([N+](=O)[O-])cc1` [H-L-4Hyp-L-Pro-L-Arg-pNA.2AcOH] (H-[Hyp]-Pro-Arg-pNA), the “Reading at 24 h” value in the assay on Candida albicans is on record as “++++”. Further, the “Specificity: interference” value with Candida tropicalis is “(b)”.

Regarding `CC(=O)O.O=C(Nc1ccc([N+](=O)[O-])cc1)[C@@H]1CC(O)CN1` (stereo partly drawn) [H-L-4Hyp-pNA.AcOH], in the assay with Candida albicans, the “Specificity: nonspecific for the strains” value was “(a)” and the “Reading at 24 h” value is listed as “+++”.

On to `C[C@H](N)C(=O)N[C@@H](C)C(=O)N1CCC[C@H]1C(=O)Nc1ccc([N+](=O)[O-])cc1` [H-L-Ala-L-Ala-L-Pro-pNA.AcOH] (H-Ala-Ala-Pro-pNA), for which the “Specificity: nonspecific for the strains” value in the assay with Candida albicans was “(a)”. Besides, in the assay on Candida albicans (same medium, reading at 48 h), the “Reading at 48 h” value is given as “+”.

Turning to `C[C@H](N)C(=O)N1CCC[C@H]1C(=O)Nc1ccc([N+](=O)[O-])cc1` [H-L-Ala-L-Pro-pNA.AcOH] (H-Ala-Pro-pNA), in the assay on Candida albicans, the “Specificity: nonspecific for the strains” value is recorded as “(a)” and the “Reading at 24 h” value is “++”.

As for `CC(=O)O.CC(=O)O.N=C(N)NCCC[C@H](N)C(=O)Nc1ccc([N+](=O)[O-])cc1` [H-L-Arg-pNA.2AcOH], in the assay on Candida albicans, the “Specificity: nonspecific for the strains” value is given as “(a)” and the “Reading at 24 h” value is given as “+++”.

As to `CC(=O)O.O=C(Nc1ccc2ccccc2c1)[C@@H]1C[C@@H](O)CN1` [H-L-Hyp-NA.AcOH, reference compound], in the assay on Candida albicans, the “Specificity: nonspecific for the strains” value is recorded as “(a)” and the “Reading at 24 h” value is listed as “++”.

With `CC(C)C[C@H](N)C(=O)NCC(=O)N[C@@H](CCCNC(=N)N)C(=O)Nc1ccc([N+](=O)[O-])cc1` [H-L-Leu-Gly-L-Arg-pNA.2AcOH] (H-Leu-Gly-Arg-pNA), the “Reading at 24 h” value with Candida tropicalis was “++++”.

Turning to `CC(=O)O.COc1cc(NC(=O)[C@@H]2CCCN2)cc2ccccc12` [H-L-Pro-(4-MeO)NA.AcOH, reference compound], the “Reading at 24 h” value in the assay with Candida albicans was “-”.

For `CC(=O)O.O=C(Nc1ccc2cc(Br)ccc2c1)[C@@H]1CCCN1` [H-L-Pro-(6-Br)NA.AcOH, reference compound], in the assay on Candida albicans, the “Specificity: nonspecific for the strains” value is given as “(a)” and the “Reading at 24 h” value is reported as “+”.

For `N=C(N)NCCC[C@H](NC(=O)[C@@H]1CCCN1)C(=O)Nc1ccc([N+](=O)[O-])cc1` [H-L-Pro-L-Arg-pNA.2AcOH] (H-Pro-Arg-pNA), the “Reading at 24 h” value in the assay with Candida tropicalis is “++”.

As to `CC(=O)O.O=C(Nc1ccc2ccccc2c1)[C@@H]1CCCN1` [H-L-Pro-NA.AcOH, reference compound], in the assay with Candida albicans, the “Specificity: nonspecific for the strains” value is “(a)” and the “Reading at 24 h” value is “++”.

Consider `CC(=O)O.COCCOCCOC(=O)NC(CCCN=C(N)N)C(=O)Nc1ccc([N+](=O)[O-])cc1` [MeO(CH2 CH2 O)2 CO-L-Arg-pNA.AcOH], for which the “Reading at 24 h” value with Candida albicans is reported as “-”.

In the case of `O=C(NCC(=O)N1CCC[C@H]1C(=O)Nc1ccc([N+](=O)[O-])cc1)OCc1ccccc1` [Z-Gly-L-Pro-pNA] (Cbz-Gly-Pro-pNA), the “Reading at 24 h” value with Candida albicans was “-”.

Turning to `CC(=O)O.NCCCC[C@H](NC(=O)OCc1ccccc1)C(=O)Nc1ccc([N+](=O)[O-])cc1` [Z-L-Lys-pNA.AcOH], the “Reading at 24 h” value in the assay on Candida albicans is “-”.

Take Boc-L-Hyp-L-Pro-L-Arg-pNA.AcOH: the “T. GLABRATA reading at 24 h” value in the assay with T. glabrata (Table III, medium pH 6.0) is given as “-”. Also, in the assay on Candida tropicalis, the “C. TROPICALIS reading at 24 h” value is “+”.

Regarding BzNH-D-Ala-Gly-L-Arg-pNA.AcOH, in the assay with T. glabrata (Table III, medium pH 6.0), the “T. GLABRATA reading at 24 h” value is reported as “-”. In addition, the “C. TROPICALIS reading at 24 h” value with Candida tropicalis is on record as “++”.

For BzNH-L-Ala-Gly-L-Arg-pNA.AcOH, in the assay on T. glabrata (Table III, medium pH 6.0), the “T. GLABRATA reading at 24 h” value was “-”. Also, the “C. TROPICALIS reading at 24 h” value with Candida tropicalis was “+++”.

Take EM-L-Hyp-L-Arg-pNA.AcOH: the “T. GLABRATA reading at 48 h” value in the assay with T. glabrata (Table III footnotes) is “+++”. For the same compound, in the assay with T. glabrata (Table III, medium pH 6.0), the “T. GLABRATA reading at 24 h” value was “-”. Also, in the assay on Candida tropicalis (Table III footnotes), the “C. TROPICALIS reading at 48 h” value is “+++”. In addition, the “C. TROPICALIS reading at 24 h” value in the assay with Candida tropicalis is “++”.

In the case of H-D-Pro-L-Hyp-L-Arg-pNA.2AcOH, the “Reading at 24 h” value with Candida tropicalis was “+++”.

For the compound H-L-Hyp-L-Arg-pNA.2AcOH, the “Reading at 24 h” value in the assay with Candida tropicalis is given as “++”.

Take H-L-Hyp-L-Hyp-L-Arg-pNA.2AcOH: in the assay with Candida tropicalis, the “Reading at 24 h” value is recorded as “+++”.

In the case of H-L-Hyp-L-Lys-pNA.2AcOH, the “Reading at 24 h” value in the assay on Candida tropicalis was “++”.

H-L-Hyp-L-Pro-L-Arg-pNA.2AcOH: in the assay on Candida tropicalis, the “Reading at 24 h” value is on record as “+++”.

Regarding H-L-ONC-L-Pro-L-Arg-pNA.AcOH, in the assay with Candida tropicalis, the “Reading at 24 h” value is reported as “+++”.

With MM-L-Phg-L-Arg-pNA.AcOH, the “T. GLABRATA reading at 24 h” value in the assay on T. glabrata (Table III, medium pH 6.0) was “+ +++”. Besides, the “C. TROPICALIS reading at 24 h” value in the assay with Candida tropicalis is given as “++”.

For the compound Z-L-Ala-L-Pro-pNA, the “Reading at 24 h” value in the assay on Candida albicans is listed as “-”.
